Tests used:
Assay type in all cases: in vivo, human
[1] = tested on: nephritis patients; assay: treatment of nephritis patients, rates by traditional standard; conditions: six or more cycles, course of seven days
Excerpt: Containing native cyclooxygenase (COX-2) doxorubicin pharmaceutical compositions of natural (atm) doxorubicin or a natural substance in the class of drugs for treating nephritis application preparation, nephritis patients diagnosed according to the usual Standard diagnosis; “effective”, “markedly”, “cure” and other standards are in accordance with the traditional standard. Dose of the drug present invention are: adult three times daily 1.8 g. Course of seven days. When six or more cycles, the treatment effect of contrast in the following table: […]

[2] = tested on: general inflammation in patients; assay: general anti-inflammatory analgesic use, general inflammation patients; conditions: two or more cycles
Excerpt: Containing native human cyclooxygenase (COX-2), doxorubicin natural (atm) or a pharmaceutical composition of doxorubicin substances of natural origin as a general anti-inflammatory analgesic drugs applied, general inflammation in patients diagnosed according to the usual criteria for diagnosis; “effective”, “cured”, “cure” and the like in accordance with conventional criteria standards. Dose of the drug present invention are: adult three times daily 1.8 g. Course of seven days When two or more cycles, the treatment effect of contrast in the following table: […]

[3] = tested on: cancer (lymphoma) patients; assay: treatment of tumors, cancer (lymphoma) patients
Excerpt: Containing native human cyclooxygenase (COX-2), doxorubicin natural (atm) or natural substance class doxorubicin in the preparation of a pharmaceutical composition of a medicament for the treatment of tumors, cancer (lymphoma) patients diagnosed is the usual criteria for diagnosis; “effective”, “cured”, “cure” and the like in accordance with conventional criteria standards. Dose of the drug present invention are: adult three times a day, every 1.8 go for 7 days. When eight or more cycles, the treatment effect of contrast in the following table: […]

## CC(C)(C)NCC(O)COc1ccccc1C#N (stereo not drawn) [Bunitrolol]
[1]
  Markedly: 59%
[1]; invention drug adult three times daily 1.8 g
  Effective: 93.2%

## [H]/N=C(/N)N[C@H]1[C@H](O)[C@@H](O)[C@H](O[C@@H]2O[C@@H](C)[C@](O)(C=O)[C@H]2O[C@@H]2O[C@@H](CO)[C@H](O)[C@@H](O)[C@@H]2NC)[C@@H](N/C(N)=N\[H])[C@@H]1O [Streptomycin]
[2]
  Invalid: 17.14%
  Markedly: 78.57%
[2]; course of seven days, invention drug adult three times daily 1.8 g
  Effective: 14.29%

## CC(=O)O[C@H]1C(=O)[C@@]2(C)[C@H]([C@H](OC(=O)c3ccccc3)[C@]3(O)C[C@H](OC(=O)[C@H](O)[C@@H](NC(=O)c4ccccc4)c4ccccc4)C(C)=C1C3(C)C)[C@]1(OC(C)=O)CO[C@@H]1C[C@@H]2O [Paclitaxel]
[3]; eight or more cycles
  Cure: 16.3%
  Invalid: 2.3%
  Markedly: 32.6%
[3]; eight or more cycles of 7 days, invention drug adult three times a day 1.8 g
  Effective: 48.8%

Reference: patent US20150118214A1, “Pharmaceutical composition containing human cyclooxygenase and doxorubicin or doxorubicin analogue, preparation method therefor and use thereof in preparing drugs” (priority 2012, published 2015)
